Measurements as given in patent US9890111B2, “Crystal structure of bifunctional transglycosylase PBP1b from E. coli and inhibitors thereof” (Academia Sinica, priority 2008, dated 2018).
pIC50, pKd: −log10 of the molar value. Converted amounts (≈) assume the structure as drawn.

What was measured:
PBP = PBP (Escherichia coli, UniProt P02919); assay: PBP binding affinity by SPR; conditions: read-out: steady-state affinity (KD)
Text: Candidate compounds to be tested were labeled with fluorescein (6-carboxyfluoresein N-hydroxysuccinimide ester) under basic conditions to prepare the fluorescent probe. One major concern about the fluorescent probe used in the FA assay is the probe itself; either the fluorophore or the structure modification, may interfere with the binding between the targeted protein and the small molecule. Therefore, the PBP binding affinities of Moe A and the fluorescent probe are compared using SPR.

[1] = molecular target: T1, penicillin-binding protein 1b from E. coli (transglycosylase) (Escherichia coli, UniProt P02919); assay: Lipid II polymerization / transglycosylase (TG) activity assay; assay type: biochemical; conditions: for TG Activity at various concentration of cmpd: 50 μM: 50 μM compound; for TG Activity at various concentration of cmpd: 100 μM: 100 μM compound; for remaining activity at 100 µM: read-out: TG Activity at various concentration of cmpd: 100 μM
T1 construct: PBP1b[58-804] was amplified from E. coli genomic DNA and cloned into the expression vector pET15b; His6 (N, cleaved yes); made in house; host or cells: E. coli BL21(DE3)
Protocol: Lipid II polymerization assays were carried out by incubating 100 μM fluorophore-labeled lipid II and penicillin-binding protein 1b from E. coli in tubes containing 10 ng/μL N-acetyl muramidase in 50 mM Tris.HCl (pH 8.0), 10 mM MgCl2, 0.1% Triton X-100, 10% DMSO, and 15% MeOH for 30 minutes (Van Nieuwenhze et al. J Am Chem Soc 2002, 124, 3656.). The fluorophore can be dansyl chloride, NBD, BODIPY, fluorescein. Reaction supernatants were then injected onto an anion-exchange HPLC column (SAX1, Supelco Co.) and eluted with a linear gradient of ammonium acetate (20 mM to 0.5 M) in methanol. The eluant was monitored for fluorescence with λex=466 nm and λem=535 nm.
Purified protein was concentrated in 20 mM Tris-HCl (pH 8.0), 300 mM NaCl, and 1 mM DDM. Instead of using Dansyl lipid II, 6-(N-(7-nitrobenz-2-oxa-1,3-diazol-4-yl)amino) hexanoyl (NBD)-labeled Lipid II was prepared as described (Taubes G (2008) Science 321:356-361; Payne D J (2008) Science 321:1644-1645) and used as a substrate to measure TG enzymatic activity, with approach similar to what has been described previously (Holtje J V (1998) Microbiol Mol Biol Rev 62:181-203). Assays were carried out by using the following condition: NBD-Lipid II, 20 nM protein, 50 mM Tris HCl (pH 8.0), 10 mMCaCl2, 0.085% decyl PEG (Anatrace), and 15% MeOH at 37° C. for 0, 1, 3, 5, 7, 9, 20, and 30 min. The concentration of NBD-Lipid II was varied from 1 to 100 μM to determine the rate of the TG activity. After the reaction, 200 μM moenomycin was added to stop the reaction, and 13 μM muramidase (Sigma-Aldrich) was added to digest the TG products to result in NBD-Lipid II without lipid tails. The fluorescent signal decrease of substrate and increase of NBD-Lipid II without lipid tails were detected by anion-exchange column SAX1 (Supelco) on HPLC (Hitachi). The elution procedures was a linear gradient of ammonium acetate (20 mM to 1 M) in MeOH monitored at λexcitation=466 nm and λemission=535 nm. The kinetic parameter was estimated by following the Michaelis-Menten equation. To investigate the importance of transmembrane (TM) helix, PBP1b and PBP1bΔTM (residues Met-1 to Leu-87 were removed) were extracted with the buffer containing 20 mM Tris-HCl (pH 8.0), 300 mM NaCl, and 13 mM FOS-CHOLINE-14 (Anatrace). The protein was purified by nickel chelation chromatography in the presence of 1 mM DDM. The activity assay was carried out by using the following condition: 12 μM NBD-Lipid II, 20 nM protein, 50 mM Tris-HCl (pH 8.0), 10 mM CaCl2, 0.085% decyl PEG, and 15% MeOH at 37° C. for time 0, 1, 3, 5, 7, 9, 20, and 30 min. The initial velocity was used to compare the activity of full-length PBP1b and PBP1bΔTM.

[2] = test system: Staphylococcus aureus (ATCC29213, SA); assay: Minimal inhibitory concentration (MIC), SA; assay type: cell-based; conditions: for MIC SA: Staphylococcus aureus ATCC29213; for MIC: Staphylococcus aureus, ATCC29213, Staphylococcus aureus ATCC29213, read-out: MIC SA
Protocol: (§1) The minimal inhibitory concentration (MIC) of tested compounds was determined following the NCCLS standard. The experiments were conducted in 96-well microtiter plates using two-fold dilutions in Muller-Hilton broth with (Streptococcus pneumonia) or without blood (Bacillus subtilis, Enterococcus faecalis, Staphylococcus aureus, Escherichia coli, MRSA, Actinetobacter baumannii, Pseudomonas aeruginosa, Stenotrophomonas maltophilia, and Mycobacterium smegmatis). Exponentially growing cells at 5×10^5 cells/ml were incubated with test compounds at various concentrations. After an 18 h to 24 h incubation at 37° C., MIC was determined as the minimal concentration of the compound that prevents bacterial growth.

[3] = test system: methicillin-resistant Staphylococcus aureus (ATCC33592, MRSA); assay: Minimal inhibitory concentration (MIC), MRSA; assay type: cell-based; conditions: methicillin-resistant Staphylococcus aureus ATCC33592; for MIC: Staphylococcus aureus, read-out: MIC MRSA
Protocol: as §1

[4] = test system: Mycobacterium smegmatis (ATCC11565, MS); assay: Minimal inhibitory concentration (MIC), MS; assay type: cell-based; conditions: for MIC MS: Mycobacterium smegmatis ATCC11565; for MIC: Mycolicibacterium smegmatis, ATCC11565, Mycobacterium smegmatis ATCC11565, read-out: MIC MS
Protocol: as §1

[5] = test system: Escherichia coli (ATCC 25922, EC); assay: Minimal inhibitory concentration (MIC), EC; assay type: cell-based; conditions: Escherichia coli ATCC 25922; for MIC: ATCC25922, read-out: MIC EC
Protocol: as §1

E. coli PBP1b = E. coli PBP1b (Escherichia coli, UniProt P02919); assay: Fluorescence anisotropy (FA) binding assay; conditions: library screening
Protocol: Fluorescence anisotropy measurements were carried out in triplicates in the wells of 384-well or 1536-well plates using a fluorescence detector that is capable to measure fluorescence anisotropy or fluorescencepolarization. For examples, a laser fluorimetry equipped with a 488 nm laser (IsoCyte) from Blueshift Biotech, Inc., (Sunnyvale, Calif., USA) of aViewlux from Perkin Elmer has been used for the application. Various buffers, salts, pH values, and divalent cations (Ca^++, Mg^++, Co^++) were optimized for fluorescence anisotropy measurements. KD and KI determinations were carried out in 100 mM NaCl, 10 mM Tris, pH 8.0. Fluorescence anisotropy values (A) were calculated using the equation: A=(I∥−G*I^⊥)/(I∥+2G*I^⊥), where I∥ is the fluorescence intensity of emitted light parallel to excitation, I^⊥ is the fluorescence intensity of emitted light perpendicular to excitation, and G is the […] that corrects for instrument bias. The G factor is experimentally determined for each run using the probe-only well as the basal anisotropy.
A high-throughput FA assay for transglycosylase was performed as disclosed in co-pending U.S. application Ser. No. 12/354,717. Concentration-dependent changes in fluorescence anisotropy was observed when E. coli PBP1b bound to F-Moe. The maximum anisotropy value was 0.2. […]
KI and IC50 values were determined from competitive displacement assay. […]

[6] = TG activity remaining (0% = full inhibition)

T1 sequence (P02919 58-804): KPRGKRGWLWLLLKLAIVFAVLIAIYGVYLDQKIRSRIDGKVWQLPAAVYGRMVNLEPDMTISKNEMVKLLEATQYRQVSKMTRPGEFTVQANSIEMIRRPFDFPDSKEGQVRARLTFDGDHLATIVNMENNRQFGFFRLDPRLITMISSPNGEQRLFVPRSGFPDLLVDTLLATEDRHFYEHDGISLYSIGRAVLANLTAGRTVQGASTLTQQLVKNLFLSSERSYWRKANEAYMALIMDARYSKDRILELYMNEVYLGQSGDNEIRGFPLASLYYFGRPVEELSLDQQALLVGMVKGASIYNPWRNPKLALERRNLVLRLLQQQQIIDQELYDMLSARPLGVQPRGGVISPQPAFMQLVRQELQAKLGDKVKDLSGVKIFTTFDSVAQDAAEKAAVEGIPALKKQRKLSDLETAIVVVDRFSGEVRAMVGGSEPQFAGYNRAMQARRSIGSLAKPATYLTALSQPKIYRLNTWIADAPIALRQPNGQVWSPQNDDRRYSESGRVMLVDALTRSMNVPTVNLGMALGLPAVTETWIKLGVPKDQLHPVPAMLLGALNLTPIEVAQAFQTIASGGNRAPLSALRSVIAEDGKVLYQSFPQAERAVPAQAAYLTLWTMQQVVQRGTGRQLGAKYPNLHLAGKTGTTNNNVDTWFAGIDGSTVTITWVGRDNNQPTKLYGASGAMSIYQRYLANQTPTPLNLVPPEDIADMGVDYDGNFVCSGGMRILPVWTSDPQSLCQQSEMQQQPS
Sequence of E. coli PBP1b (P02919 whole entry): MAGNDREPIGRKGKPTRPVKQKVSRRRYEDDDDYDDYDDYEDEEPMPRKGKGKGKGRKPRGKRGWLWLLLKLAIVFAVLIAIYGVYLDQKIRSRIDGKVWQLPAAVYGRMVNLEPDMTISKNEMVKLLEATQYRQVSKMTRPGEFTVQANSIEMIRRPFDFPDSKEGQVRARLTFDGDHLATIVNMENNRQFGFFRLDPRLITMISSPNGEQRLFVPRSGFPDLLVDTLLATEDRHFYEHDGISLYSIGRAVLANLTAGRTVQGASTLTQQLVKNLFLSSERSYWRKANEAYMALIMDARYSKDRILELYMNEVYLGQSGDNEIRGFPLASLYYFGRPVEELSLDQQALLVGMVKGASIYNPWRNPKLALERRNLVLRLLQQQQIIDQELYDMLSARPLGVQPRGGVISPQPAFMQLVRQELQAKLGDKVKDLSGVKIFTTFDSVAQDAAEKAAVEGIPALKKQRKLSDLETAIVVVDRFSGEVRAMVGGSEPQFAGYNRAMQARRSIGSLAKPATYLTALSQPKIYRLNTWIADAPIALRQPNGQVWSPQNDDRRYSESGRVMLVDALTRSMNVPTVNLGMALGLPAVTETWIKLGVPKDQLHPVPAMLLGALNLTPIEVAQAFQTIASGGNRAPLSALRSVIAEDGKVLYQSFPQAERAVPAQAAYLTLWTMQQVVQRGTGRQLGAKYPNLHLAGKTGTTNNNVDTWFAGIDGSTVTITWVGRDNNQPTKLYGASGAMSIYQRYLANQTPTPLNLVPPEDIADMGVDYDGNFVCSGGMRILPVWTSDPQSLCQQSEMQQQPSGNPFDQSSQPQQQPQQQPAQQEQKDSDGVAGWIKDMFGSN
Sequence of PBP (P02919 58-804): as the sequence (P02919 58-804) above

C=C(C/C=C(\C)CCC=C(C)C)CCC(C)(C)/C=C/CC/C(C)=C\CO[C@H](COP(=O)(O)O[C@H]1OC(C(N)=O)[C@@](C)(O)[C@H](OC(N)=O)C1O[C@@H]1OC(CO[C@@H]2OC(CO)[C@@H](O)[C@H](O)C2O)[C@@H](O[C@@H]2OC(C)[C@@H](O[C@@H]3OC(C(=O)NC4=C(O)CCC4=O)[C@H](O)[C@H](O)C3O)[C@H](O)C2NC(C)=O)[C@H](O)C1NC(C)=O)C(=O)O (stereo partly shown) [Moe A, Moenomycin A]
pKd (PBP): 6.36

O=C(Nc1cc(Cl)cc(C(=O)c2ccc(Cl)cc2)c1Cl)c1cc(Br)cc(Br)c1O [Compound 115]
TG Activity at various concentration of cmpd: 50 μM [1, 6]: 100%
TG Activity at various concentration of cmpd: 100 μM [1, 6]: 0%
MIC SA [2]: 0.5 µg/mL (≈ 0.864 µM)
MIC MRSA [3]: 2 µg/mL (≈ 3.46 µM)
MIC MS [4]: 0.25 µg/mL (≈ 0.432 µM)
MIC EC [5]: >256 µg/mL

O=C(c1ccccc1)c1cc(NC(=O)c2cc(Br)cc(Br)c2O)ccc1Cl [Compound 124]
TG Activity at various concentration of cmpd: 50 μM [1, 6]: 100%
TG Activity at various concentration of cmpd: 100 μM [1, 6]: 0%
MIC SA [2]: 1 µg/mL (≈ 1.96 µM)
MIC MRSA [3]: 1 µg/mL (≈ 1.96 µM)
MIC MS [4]: 1 µg/mL (≈ 1.96 µM)
MIC EC [5]: >256 µg/mL

O=C(Nc1cc(Cl)c(Cl)c(Cl)c1)c1cc(Br)cc(Br)c1O [Compound 001]
remaining activity at 100 µM [1]: 100%
MIC [2]: ≤ 0.03 µg/mL
MIC [3]: 0.06 µg/mL (≈ 0.126 µM)
MIC [4]: ≤ 0.03 µg/mL
MIC [5]: 16 µg/mL (≈ 33.7 µM)

O=C(Nc1cc(Cl)ccc1Oc1ccccc1)c1cc(Br)cc(Br)c1O [Compound 009]
pIC50 [1]: 4.35
transglycosylase inhibition activity (in words) [1]: showed inhibition activities
TG Activity at various concentration of cmpd: 25 μM ([1]; 25 μM compound, TG activity remaining (0% = full inhibition)): 100%
remaining activity at 50 µM ([1]; read-out: TG Activity at various concentration of cmpd: 50 μM): 20%
remaining activity at 100 µM [1]: 0%
MIC [2]: 0.5 µg/mL (≈ 1 µM)
MIC [3]: 0.25 µg/mL (≈ 0.502 µM)
MIC [4]: 0.25 µg/mL (≈ 0.502 µM)
MIC [5]: > 256 µg/mL
inhibition activity in fluorescence anisotropy (in words) (E. coli PBP1b): showed inhibition activities
